Measured values published in patent publication US20040121947A1, “Compounds which inhibit beta-secretase activity and methods of use thereof” (Oklahoma Medical Research Foundation, priority 2000, published 2004).
Like-named read-outs stand apart in the source and are kept apart here. *1 amine or outer side, *2 acyl side, *3 side chain or, on linkers, in order; H or OH if unused. Where a SMILES comes first, the peptide text is derived from it. [ ]: non-standard residue; d: D form. LeuΨ(S-CHOHCH2)Ala = CC(C)C[C@H](N[*:1])[C@@H](O)C[C@@H](C)C(=O)[*:2]

Molecular target: T1, memapsin 2 (Homo sapiens, UniProt P56817)
T1 construct: pET-11 vector-derived residues 1-15 of promemapsin 2-T1 (N, cleaved yes); made in house; host or cells: E. coli
T1 sequence (P56817 41-454 limits assumed): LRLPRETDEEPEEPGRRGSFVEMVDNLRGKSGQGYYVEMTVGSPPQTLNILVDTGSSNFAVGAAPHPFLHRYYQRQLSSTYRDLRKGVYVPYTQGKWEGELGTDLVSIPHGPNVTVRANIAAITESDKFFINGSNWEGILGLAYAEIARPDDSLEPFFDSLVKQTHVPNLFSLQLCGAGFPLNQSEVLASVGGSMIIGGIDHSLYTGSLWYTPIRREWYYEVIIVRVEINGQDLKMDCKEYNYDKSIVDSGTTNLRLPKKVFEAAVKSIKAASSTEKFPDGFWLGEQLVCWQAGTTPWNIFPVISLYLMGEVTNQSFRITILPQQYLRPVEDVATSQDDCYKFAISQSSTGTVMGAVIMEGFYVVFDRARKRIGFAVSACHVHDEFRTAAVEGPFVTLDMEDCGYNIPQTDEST
Test: Inhibition of memapsin 2 proteolytic activity, fluorogenic substrate FS-2
Type: biochemical
Conditions: for Vi/Vo: ratio of initial cleavage velocities of FS-2 with/without compound, enzyme and inhibitor concentrations equal (e.g., about 80 nM, 100 nM)
In short: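 Inhibitors tested at about 10 nM to 10 μM in pH 4.0 0.1 M sodium acetate containing 10% (v/v) DMSO, after 20 min preincubation at 37 °C with 80 nM self-activated memapsin 2. Substrate-independent Ki derived from apparent Ki via Km and substrate level.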

[1] = memapsin 2, apparent Ki in presence of substrate FS-2, read-out: Ki app
[2] = memapsin 2, independent of substrate, converted from Ki apparent, read-out: Ki
[3] = Ki, [I] < 100, memapsin 2, [I] < 100 (nM)

Structure (SMILES)	Ki [1] [nM]	Ki [2] [nM]	Vi/Vo	also measured
CSCC[C@H](NC(=O)[C@@H](NC(=O)OC(C)(C)C)C(C)C)C(=O)N[C@@H](CC(C)C)[C@@H](O)C[C@@H](C)C(=O)N[C@@H](CC(C)C)C(=O)NCCc1c[nH]c2ccccc12 [MMI-065]	68.7	42.9	–	–
CSCC[C@H](NC(=O)[C@@H](NC(=O)OC(C)(C)C)C(C)C)C(=O)N[C@@H](CC(C)C)[C@@H](O)C[C@@H](C)C(=O)N[C@H]1c2ccccc2C[C@H]1O [MMI-046]	–	93700	–	–
CSCC[C@H](NC(=O)[C@H](CC(C)C)NS(=O)(=O)c1ccc(C)cc1)C(=O)N[C@@H](CC(C)C)[C@@H](O)C[C@@H](C)C(=O)N[C@H](C(=O)NCc1ccccc1)C(C)C [MMI-089]	315	197	–	–
CSCC[C@H](NC(=O)[C@H](C(C)C)N1CCCNC1=O)C(=O)N[C@@H](CC(C)C)[C@@H](O)C[C@@H](C)C(=O)N[C@@H](CC(C)C)C(=O)NCC(C)C [MMI-198]	756	473	–	–
CC(C)C[C@H](NC(=O)[C@H](CS(C)(=O)=O)NC(=O)OCc1ccncc1)[C@@H](O)C[C@@H](C)C(=O)N[C@H](C(=O)NCc1ccccc1)C(C)C [MMI-144]	–	–	1.03	–
CC(C)C[C@H](NC(=O)[C@H](CCS(C)(=O)=O)NC(=O)OCc1ccc(CN(C)C)o1)[C@@H](O)C[C@@H](C)C(=O)N[C@H](C(=O)NCc1ccccc1)C(C)C [MMI-129]	–	–	1.01	–
CSCC[C@H](NC(=O)[C@@H](NC(=O)OC(C)(C)C)C(C)C)C(=O)N[C@@H](CC(C)C)[C@@H](O)C[C@@H](C)C(=O)N[C@@H](C(C)C)C1CCCCO1 (stereo partly shown) [MMI-130]	–	68600	–	–
CC(C)C[C@H](NC(=O)[C@H](CCS(C)(=O)=O)NC(=O)OCc1ccoc1)[C@@H](O)C[C@@H](C)C(=O)N[C@H](C(=O)NCc1ccccc1)C(C)C [MMI-137]	–	–	0.85	–
CSCC[C@H](NC(=O)[C@H](CC(C)C)NC(=O)OC(C)(C)C)C(=O)N[C@@H](CC(C)C)[C@@H](O)C[C@@H](C)C(=O)N[C@@H](CC(C)C)C(=O)NC(C)C [MMI-158]	0.524	0.33	0.08	–
CC(C)C[C@H](NC(=O)[C@H](CC(N)=O)NC(=O)[C@@H](NC(=O)OC(C)(C)C)C(C)C)[C@@H](O)C[C@@H](C)C(=O)N[C@H](C(=O)NCc1ccccc1)C(C)C [MMI-012]	9.1	5.68	–	–
CCC[C@H](C[C@H](O)[C@H](CC(C)C)NC(=O)[C@H](CSC)NC(=O)O[C@H]1CCOC1)C(=O)N[C@H](C(=O)NCc1ccccc1)C(C)C [MMI-029]	1700	1060	–	–
CC(C)C[C@H](NC(=O)[C@H](CC(N)=O)NC(=O)[C@@H](NC(=O)OC(C)(C)C)C(C)C)[C@@H](O)C[C@@H](C)C(=O)N[C@@H](C)C(=O)NCc1ccccc1 [MMI-005]	126	78.9	–	–
CC[C@H](C)[C@H](NC(=O)[C@H](C)C[C@H](O)[C@H](CC(C)C)NC(=O)C(CCSC)NC(=O)[C@H](CC(C)C)NC(=O)OC(C)(C)C)C(=O)NCc1ccccc1 (stereo partly shown) [MMI-099]	290	182	–	–
CC(C)C[C@H](NC(=O)[C@H](CCS(C)(=O)=O)NC(=O)OC(C)(C)C)[C@@H](O)C[C@@H](C)C(=O)N[C@@H](C)C(=O)NCc1ccccc1 [MMI-007]	49900	31700	–	–
CSCC[C@H](NC(=O)[C@H](CC(C)C)NC(=O)OC(C)(C)C)C(=O)N[C@@H](CC(C)C)[C@@H](O)C[C@@H](C)C(=O)N[C@H](C(=O)NCc1ccco1)C(C)C [MMI-161]	0.68	0.43	0.06	–
Cc1c(O)cccc1C(=O)N[C@@H](CCS(C)(=O)=O)C(=O)N[C@@H](CC(C)C)[C@@H](O)C[C@@H](C)C(=O)N[C@@H](CC(C)C)C(=O)NCc1ccccc1 [MMI-123]	–	–	0.61	–

Structure (SMILES)	Ki [1] [nM]	Ki [2] [nM]	Vi/Vo	also measured
CSC[C@H](NC(=O)OCc1ccccn1)C(=O)N[C@@H](CC(C)C)[C@@H](O)C[C@@H](C)C(=O)N[C@H](C(=O)NCc1ccccc1)C(C)C [MMI-125]	–	–	0.76	–
CC(C)C[C@H](NC(=O)[C@@H]1CC(=O)NC/C=C\CCOC(=O)N[C@@H](C(C)C)C(=O)N1)[C@@H](O)C[C@@H](C)C(=O)N[C@H](C(=O)NCc1ccccc1)C(C)C [MMI-152]	20.6	12.8	0.47	–
CSCC[C@H](NC(=O)C(C)Cn1nc(C)cc1C)C(=O)N[C@@H](CC(C)C)[C@@H](O)C[C@@H](C)C(=O)N[C@@H](CC(C)C)C(=O)NCc1ccco1 (stereo partly shown) [MMI-226]	110	68.9	–	–
COc1cccc(C(=O)N[C@@H](CCSC)C(=O)N[C@@H](CC(C)C)[C@@H](O)C[C@@H](C)C(=O)N[C@@H](CC(C)C)C(=O)NC(C)C)c1OC [MMI-206]	1210	758	–	Ki [3]: 292 nM
CSCC[C@H](NC(=O)[C@@H](NC(=O)OC(C)(C)C)C(C)C)C(=O)N[C@@H](CC(C)C)[C@@H](O)C[C@@H](C)C(=O)N[C@H](CO)C(C)C [MMI-042]	36500	22800	–	–
CSCC[C@H](NC(=O)[C@@H](NC(=O)OC(C)(C)C)C(C)C)C(=O)N[C@@H](CC(C)C)[C@@H](O)C[C@H](C)NC(=O)[C@@H](NC(=O)OCc1ccccc1)C(C)C [MMI-168]	–	–	0.75	–
CSCC[C@H](NC(=O)[C@@H](NC(=O)OC(C)(C)C)C(C)C)C(=O)N[C@@H](CC(C)C)[C@@H](O)C[C@@H](C)C(=O)N[C@@H](C(C)C)C1CC(Cc2ccccc2)CCO1 (stereo partly shown) [MMI-146-S]	–	–	1.04	–
CSCC[C@H](C[C@H](O)[C@H](CC(C)C)NC(=O)[C@H](CCSC)NC(=O)[C@H](CC(C)C)NC(=O)OC(C)(C)C)C(=O)N[C@H](C(=O)NCc1ccccc1)C(C)C [MMI-164]	12.8	7.98	0.29	–
CSCC[C@H](NC(=O)NCc1ccco1)C(=O)N[C@@H](CC(C)C)[C@@H](O)C[C@@H](C)C(=O)N[C@H](C(=O)NCc1ccccc1)C(C)C [MMI-115]	378	236	1.04	–
CCCCNC(=O)[C@@H](NC(=O)[C@H](C)C[C@H](O)[C@H](CC(C)C)NC(=O)[C@H](CCSC)NC(=O)[C@H](CC(C)C)NC(=O)OC(C)(C)C)C(C)C [MMI-159]	0.8	0.5	0.07	–
CSCC[C@H](NC(=O)OCn1nc(C)cc1C)C(=O)N[C@@H](CC(C)C)[C@@H](O)C[C@@H](C)C(=O)N[C@@H](CC(C)C)C(=O)N1CCN(C)CC1 [MMI-216]	1200	753	–	–
CSCC[C@H](NC(=O)[C@@H](NC(=O)OC(C)(C)C)C(C)C)C(=O)N[C@@H](CC(C)C)[C@@H](O)C[C@@H](C)C(=O)N[C@@H](CC(C)C)C(=O)N1CCOCC1 [MMI-183]	6740	4210	0.64	Ki [3]: 108 nM
CSCC[C@H](NC(=O)OCn1nc(C)cc1C)C(=O)N[C@@H](CC(C)C)[C@@H](O)C[C@@H](C)C(=O)N[C@@H](CC(C)C)C(=O)NC(C)C [MMI-224]	70	43.8	–	–
CSCC[C@H](NC(=O)[C@@H](NC(=O)OC(C)(C)C)C(C)C)C(=O)N[C@@H](CC(C)C)[C@@H](O)C[C@@H](C)C(=O)N[C@@H]1c2ccccc2C[C@@H]1O [MMI-053]	–	–	–	Ki app (memapsin 2, apparent Ki in presence of substrate FS-2): N.I.; Ki (memapsin 2, independent of substrate, converted from Ki apparent): N.I.
CC(C)C[C@H](NC(=O)[C@H](CC(N)=O)NC(=O)[C@@H](N)C(C)C)[C@@H](O)C[C@@H](C)C(=O)N[C@@H](C)C(=O)N[C@@H](CCC(=O)O)C(=O)O [OM01-1] (H-VN[LeuΨ(S-CHOHCH2)Ala]AE-OH)	–	–	–	Ki (memapsin 2, read-out: Ki): 126 nM
